From US7655689B2, “Fused heterocyclic succinimide compounds and analogs thereof, modulators of nuclear hormone receptor function” (Bristol-Myers Squibb Company, priority 2000, dated 2010)
Like-named read-outs stand apart in the source and are kept apart here.

Columns and labels:
glucocorticoid receptor = glucocorticoid receptor (Homo sapiens, UniProt P04150); conditions: concentration ≦10 μM, A549 cells
Method: A549 cells, which contain endogenous glucocorticoid receptor, were stably transfected with an AP-1 DNA binding site attached to the luciferase gene. […] Cells are plated the day before the assay at approximately 40000 cells/well. […] Activity is measured by analysis in a luminometer as compared to control experiments treated with buffer or dexamethasome.

AR [1] = target: T1, AR (Rattus norvegicus, UniProt P15207)
T1 sequence (P15207 1-902): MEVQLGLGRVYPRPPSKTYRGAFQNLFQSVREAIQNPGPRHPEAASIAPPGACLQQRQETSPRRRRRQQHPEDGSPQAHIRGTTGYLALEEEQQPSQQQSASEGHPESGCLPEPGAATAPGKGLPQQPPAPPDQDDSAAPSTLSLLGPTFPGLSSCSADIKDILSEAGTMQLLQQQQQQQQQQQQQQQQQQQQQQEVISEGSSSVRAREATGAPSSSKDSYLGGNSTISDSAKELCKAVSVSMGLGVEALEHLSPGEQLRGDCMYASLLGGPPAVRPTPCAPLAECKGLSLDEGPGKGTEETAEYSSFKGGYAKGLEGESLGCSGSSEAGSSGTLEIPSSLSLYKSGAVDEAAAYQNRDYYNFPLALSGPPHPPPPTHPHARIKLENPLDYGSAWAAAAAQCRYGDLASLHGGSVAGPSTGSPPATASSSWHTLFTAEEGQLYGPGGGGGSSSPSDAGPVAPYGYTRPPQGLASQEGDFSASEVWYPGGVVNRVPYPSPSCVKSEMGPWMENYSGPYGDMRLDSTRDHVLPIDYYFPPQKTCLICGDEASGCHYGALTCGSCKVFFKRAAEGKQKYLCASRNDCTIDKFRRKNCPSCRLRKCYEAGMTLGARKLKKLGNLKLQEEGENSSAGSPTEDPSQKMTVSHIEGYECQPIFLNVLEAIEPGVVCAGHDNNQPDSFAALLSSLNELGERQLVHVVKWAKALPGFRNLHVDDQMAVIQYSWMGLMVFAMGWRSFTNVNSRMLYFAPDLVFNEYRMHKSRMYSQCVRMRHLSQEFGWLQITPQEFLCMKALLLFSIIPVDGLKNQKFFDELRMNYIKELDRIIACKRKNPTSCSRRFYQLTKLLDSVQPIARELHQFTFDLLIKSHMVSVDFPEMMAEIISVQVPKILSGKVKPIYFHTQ

AR [2] = target: T1, AR; remark: listed apart in the source
Description: The activity of compounds of the present invention as AR agonists was investigated in an immature male rat model, a recognized test of anabolic effects in muscle and sustaining effects in sex organs for a given compound, as described in L. G. Hershberger et al., Proc. Soc. […] Yak. Ken. Nem.
The basis of this assay lies in the well-defined action of androgenic agents on the maintenance and growth of muscle tissues and sexual accessory organs in animals and man. […] J. Anat. […] I. Quantitative data” Boll.-Soc. Ital. Biol. Sper. […] II. Electron-microscopic observations” Boll.-Soc. Ital. Biol. Sper. […] As described above, the effects of androgens on maintenance of male sexual accessory organs, such as the prostate and seminal vesicles, is well described. Castration results in rapid involution and atrophy of the prostate and seminal vesicles. This effect can be reversed by exogenous addition of androgens. Since both the levator ani muscle and the male sex organs are the tissues most responsive to the effects of androgenic agents, this model is used to determine the androgen dependent reversal of atrophy in the levator ani muscle and the sex accessory organs in immature castrated rats. Sexually mature rats (200-250 g, 6-8 weeks-old, Sprague-Dawley, Harlan) were acquired castrated from the vendor (Taconic). […]

glucocorticoid receptor, sequence (P04150 whole entry): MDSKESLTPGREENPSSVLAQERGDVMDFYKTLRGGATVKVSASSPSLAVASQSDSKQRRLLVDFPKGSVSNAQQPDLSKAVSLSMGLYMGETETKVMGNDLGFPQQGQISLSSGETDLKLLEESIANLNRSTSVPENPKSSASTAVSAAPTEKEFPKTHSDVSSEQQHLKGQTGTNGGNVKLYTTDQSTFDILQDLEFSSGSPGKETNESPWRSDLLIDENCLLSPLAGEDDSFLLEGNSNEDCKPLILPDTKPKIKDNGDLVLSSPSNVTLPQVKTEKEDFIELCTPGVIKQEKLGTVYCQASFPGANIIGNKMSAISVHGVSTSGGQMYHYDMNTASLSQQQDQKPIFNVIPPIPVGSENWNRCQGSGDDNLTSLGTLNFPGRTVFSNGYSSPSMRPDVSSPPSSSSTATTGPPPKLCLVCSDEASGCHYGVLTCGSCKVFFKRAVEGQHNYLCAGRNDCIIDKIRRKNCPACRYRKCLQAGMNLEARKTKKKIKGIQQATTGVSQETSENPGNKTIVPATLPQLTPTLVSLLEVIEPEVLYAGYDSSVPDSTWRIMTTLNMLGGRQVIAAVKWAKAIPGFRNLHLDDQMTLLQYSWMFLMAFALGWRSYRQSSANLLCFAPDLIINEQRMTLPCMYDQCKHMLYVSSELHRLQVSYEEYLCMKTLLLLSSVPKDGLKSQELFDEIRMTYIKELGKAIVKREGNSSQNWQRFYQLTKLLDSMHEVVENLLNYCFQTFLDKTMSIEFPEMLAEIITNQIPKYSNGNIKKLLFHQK

## C[C@@H]1C[C@H]2[C@@H]3CCC4=CC(=O)C=C[C@]4(C)[C@@]3(F)[C@@H](O)C[C@]2(C)[C@@]1(O)C(=O)CO [dexamethasone]
Glucocorticoid receptor
  suppression of activity (% inhibition of the reporter system vs buffer control with 10 ng/ml PMA): ~65%

## CCC(=O)O[C@H]1CC[C@H]2[C@@H]3CCC4=CC(=O)CC[C@]4(C)[C@H]3CC[C@]12C [testosterone propionate, Testosterone Propionate]
AR [1]; immature castrated rat model
  ED80: 0.1 mg
AR [1]; immature castrated rats
  EC50 (increase in organ weight): ~0.03 mg
AR [1]; organ weight increase, immature castrated rats
  potency relative to free T: 10-30 fold
AR [2]; castrated rats
  EC50 (increase in organ weight): ~0.03 mg
AR [2]; organ weight increase
  potency relative to free T: 10-30 fold
